Assay: heat capacity at constant pressure per volume; xn = mol fraction of the nth substance listed
Settings: DSC

CC1CCCC(C)N1 (stereo not drawn) [2,6-dimethylpiperidine] + O
Liquid mixture 1, x1 = 0.055
Settings | heat capacity [J/K/m3]
264 K | 4559000
264.47 K | 4560000
264.95 K | 4546000
265.42 K | 4529000
265.9 K | 4518000
266.37 K | 4505000
266.84 K | 4492000
267.32 K | 4480000
267.79 K | 4471000
268.26 K | 4448000
268.74 K | 4442000
269.21 K | 4429000
269.68 K | 4420000
270.16 K | 4409000
270.63 K | 4398000
271.1 K | 4391000
271.58 K | 4375000
272.05 K | 4367000
272.52 K | 4356000
273 K | 4342000
273.47 K | 4341000
273.94 K | 4336000
274.42 K | 4322000
274.89 K | 4313000
275.36 K | 4305000
275.84 K | 4293000
276.31 K | 4289000
276.78 K | 4278000
277.25 K | 4274000
277.73 K | 4266000
278.2 K | 4260000
278.68 K | 4252000
279.15 K | 4250000
279.62 K | 4239000
280.1 K | 4237000
280.57 K | 4227000
281.04 K | 4227000
281.51 K | 4221000
281.99 K | 4216000
282.46 K | 4215000
282.94 K | 4208000
283.41 K | 4206000
283.88 K | 4199000
284.36 K | 4195000
284.83 K | 4191000
285.3 K | 4189000
285.77 K | 4182000
286.25 K | 4178000
286.72 K | 4177000
287.19 K | 4174000
287.67 K | 4174000
288.14 K | 4172000
288.61 K | 4170000
289.09 K | 4171000
289.56 K | 4167000
290.03 K | 4166000
290.51 K | 4165000
290.98 K | 4166000
291.45 K | 4165000
291.93 K | 4166000
292.6 K | 4164000
292.81 K | 4147000
293.02 K | 4141000
293.23 K | 4164000
293.45 K | 4134000
293.66 K | 4144000
293.87 K | 4164000
294.08 K | 4166000
294.3 K | 4164000
294.51 K | 4144000
294.72 K | 4183000
294.93 K | 4155000
295.14 K | 4142000
295.36 K | 4144000
295.57 K | 4153000
295.78 K | 4178000
295.99 K | 4155000
296.2 K | 4175000
296.42 K | 4213000
296.63 K | 4189000
296.84 K | 4188000
297.06 K | 4228000
297.27 K | 4210000
297.48 K | 4217000
297.69 K | 4232000
297.9 K | 4249000
298.12 K | 4247000
298.33 K | 4277000
298.54 K | 4280000
298.75 K | 4295000
298.96 K | 4312000
299.18 K | 4375000
299.39 K | 4534000

102.6 kPa, Liquid, x1 = 0.055
Settings | heat capacity [J/K/m3]
299.6 K | 5314000
299.81 K | 5077000
300.03 K | 5010000
300.24 K | 4873000
300.45 K | 4815000
300.66 K | 4801000
300.88 K | 4772000
301.09 K | 4785000
301.3 K | 4742000
301.51 K | 4632000
301.73 K | 4641000
301.94 K | 4672000
302.15 K | 4625000
302.36 K | 4675000
302.57 K | 4597000
302.79 K | 4600000
303 K | 4544000
303.21 K | 4578000
303.42 K | 4592000
303.64 K | 4555000
303.85 K | 4564000
304.06 K | 4532000
304.27 K | 4520000
304.49 K | 4530000
304.7 K | 4519000
304.91 K | 4468000
305.12 K | 4514000
305.33 K | 4463000
305.55 K | 4423000
305.76 K | 4443000

CC1CCCC(C)N1 (stereo not drawn) [2,6-dimethylpiperidine] + [2H]O[2H]
Liquid mixture 1, x1 = 0.054
Settings | heat capacity [J/K/m3]
270.36 K | 4851000
270.67 K | 4851000
270.98 K | 4850000
271.3 K | 4843000
271.61 K | 4841000
271.92 K | 4831000
272.23 K | 4822000
272.54 K | 4813000
272.85 K | 4803000
273.16 K | 4797000
273.47 K | 4793000
273.78 K | 4785000
274.1 K | 4778000
274.41 K | 4775000
274.72 K | 4768000
275.03 K | 4764000
275.34 K | 4752000
275.65 K | 4755000
275.96 K | 4749000
276.27 K | 4742000
276.58 K | 4732000
276.89 K | 4728000
277.21 K | 4720000
277.52 K | 4717000
277.83 K | 4706000
278.14 K | 4700000
278.45 K | 4697000
278.76 K | 4694000
279.07 K | 4693000
279.38 K | 4689000
279.69 K | 4685000
280 K | 4677000
280.32 K | 4675000
280.63 K | 4668000
280.94 K | 4667000
281.25 K | 4661000
281.56 K | 4654000
281.87 K | 4654000
282.18 K | 4653000
282.49 K | 4642000
282.8 K | 4640000
283.12 K | 4641000
283.43 K | 4645000
283.74 K | 4645000
284.05 K | 4638000
284.36 K | 4635000
284.67 K | 4627000
284.98 K | 4628000
285.29 K | 4633000
285.6 K | 4630000
285.91 K | 4623000
286.23 K | 4610000
286.54 K | 4617000
286.85 K | 4623000
287.16 K | 4612000
287.47 K | 4611000
287.78 K | 4609000
288.09 K | 4606000
288.6 K | 4566000
288.82 K | 4558000
289.05 K | 4578000
289.28 K | 4580000
289.51 K | 4581000
289.74 K | 4539000
289.96 K | 4559000
290.19 K | 4609000
290.42 K | 4604000
290.65 K | 4587000
290.88 K | 4581000
291.11 K | 4554000
291.33 K | 4556000
291.56 K | 4590000
291.79 K | 4592000
292.02 K | 4589000
292.25 K | 4578000
292.48 K | 4643000
292.71 K | 4602000
292.94 K | 4606000
293.16 K | 4623000
293.39 K | 4660000
293.62 K | 4615000
293.85 K | 4629000
294.08 K | 4700000
294.31 K | 4655000
294.53 K | 4669000
294.76 K | 4707000
294.99 K | 4644000
295.22 K | 4708000
295.45 K | 4694000
295.68 K | 4733000
295.9 K | 4759000
296.13 K | 4861000
296.36 K | 5146000

102.6 kPa, Liquid, x1 = 0.054
Settings | heat capacity [J/K/m3]
296.59 K | 5567000
296.82 K | 5424000
297.05 K | 5334000
297.28 K | 5260000
297.5 K | 5164000
297.73 K | 5179000
297.96 K | 5136000
298.19 K | 5070000
298.42 K | 5083000
298.65 K | 5094000
298.88 K | 5093000
299.1 K | 5111000
299.33 K | 5023000
299.56 K | 5049000
299.79 K | 5063000
300.02 K | 5028000
300.25 K | 5015000
300.48 K | 5009000
300.7 K | 4961000
300.93 K | 4977000
301.16 K | 4985000
301.39 K | 4958000
301.62 K | 4957000
301.85 K | 4945000
302.07 K | 4916000
302.3 K | 4889000
302.53 K | 4922000

From the NIST ThermoML archive (doi:10.1016/j.fluid.2015.10.027)
